Measured values reported in patent US20260201008A1, “SECRETIN-DERIVED GLP1R SELECTIVE AGONISTS” (GUBRA A/S, priority 2023, published 2026).
Read-outs that look alike come from different tables or passages of the source. Numbered stars: 1 amine (or outer) side, 2 acyl side, 3 side chain; on linkers, the order of the positions; unused ones are H or OH. Square brackets hold non-standard residues; d marks the D form. Side chains are listed from the residue outwards. Peptide text beside a SMILES is read from it. * marks the point of attachment. C20 diacid = O=C(O)CCCCCCCCCCCCCCCCCCC(=O)*; γGlu = O=C(O)[C@H](CCC(=O)[*:2])N[*:1]; AEEA = NCCOCCOCC(=O)O; Aib = CC(C)(N)C(=O)O

Experiments:
[1] = Turbidity of crude library peptides (absorbance at 600 nm); assay type: physicochemical; conditions: Physical stability of peptides
Method in brief: (§1)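 Values reflect mean ThT emission (ex 450, em 480 nm) over 72 h at 40° C, read every 10 min after 5 min shaking at 700 rpm, plus a single initial absorbance at 600 nm for turbidity. Peptides were at 267 μM, pH 4.0 acetate or pH 7.0 phosphate (50 mM), with 4 μM ThT.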

[2] = target: SCTR (Homo sapiens, UniProt P47872); assay: hSCTR potency, cAMP accumulation in CHO-K1 cells stably overexpressing hSCTR; assay type: cell-based; design: alternatively Euroscreen ES-712-AF; FAST-0161L; host or cells: CHO-K1; conditions: cAMP accumulation, CHO-K1 cells overexpressing hSCTR
Chain of SCTR (P47872 23-440): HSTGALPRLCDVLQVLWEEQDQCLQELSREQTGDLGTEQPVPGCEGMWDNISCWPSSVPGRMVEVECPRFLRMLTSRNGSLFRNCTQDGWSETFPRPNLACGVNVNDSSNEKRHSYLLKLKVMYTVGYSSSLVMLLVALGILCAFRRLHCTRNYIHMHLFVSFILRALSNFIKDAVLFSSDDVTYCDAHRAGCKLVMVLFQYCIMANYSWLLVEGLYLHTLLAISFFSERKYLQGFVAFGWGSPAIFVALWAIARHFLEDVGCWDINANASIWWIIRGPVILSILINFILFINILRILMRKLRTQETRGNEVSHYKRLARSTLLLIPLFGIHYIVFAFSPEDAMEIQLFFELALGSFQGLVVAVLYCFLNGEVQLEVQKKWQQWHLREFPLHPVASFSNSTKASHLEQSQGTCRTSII
Method in brief: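 Potency reflects cAMP accumulation after 30 min agonist exposure at room temperature in hSCTR-expressing CHO-K1 cells, with 0.5 mM IBMX present to block phosphodiesterase. EC50 was derived by nonlinear regression.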

[3] = Fibril formation of crude library peptides (Thioflavin T); assay type: physicochemical; design: key: average ThT fluorescence emission at 480 nm (ex 450 nm), raw units; conditions: Physical stability of peptides
Method in brief: as §1

[4] = target: GLP1R (Homo sapiens, UniProt P43220); assay: hGLP1R potency, cAMP accumulation in CHO-K1 cells stably overexpressing hGLP1R; assay type: cell-based; design: host or cells: CHO-K1; conditions: for Selectivity: SCTR EC50/GLP1R EC50 ratio; for EC50: cAMP accumulation, CHO-K1 cells overexpressing hGLP1R; for SCTR EC50/GLP1R EC50 ratio: selectivity for hGLP1R over hSCTR, cAMP accumulation in CHO-K1 cells
Chain of GLP1R (P43220 24-463): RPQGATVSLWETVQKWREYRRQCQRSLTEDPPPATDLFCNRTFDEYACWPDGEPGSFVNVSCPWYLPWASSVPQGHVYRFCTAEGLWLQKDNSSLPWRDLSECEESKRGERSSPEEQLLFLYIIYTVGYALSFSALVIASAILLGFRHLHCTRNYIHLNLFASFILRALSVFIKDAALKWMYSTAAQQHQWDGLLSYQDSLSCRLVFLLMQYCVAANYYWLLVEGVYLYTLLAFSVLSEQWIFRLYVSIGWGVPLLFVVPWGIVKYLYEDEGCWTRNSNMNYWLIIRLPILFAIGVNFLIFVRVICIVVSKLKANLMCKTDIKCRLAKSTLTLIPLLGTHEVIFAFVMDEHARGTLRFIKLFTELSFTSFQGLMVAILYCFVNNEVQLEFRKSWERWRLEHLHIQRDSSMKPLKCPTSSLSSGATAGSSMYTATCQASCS
Method in brief: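 Potency reflects cAMP accumulation measured by time-resolved fluorescence energy transfer after a 30 min room-temperature stimulation in IBMX-containing (0.5 mM) DPBS with casein. Purified peptides were tested in duplicate over eleven threefold dilutions, and EC50 was obtained from sigmoid concentration-response fitting.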

[5] = read-out: pEC50 hSCTR (converted)
[6] = read-out: pEC50 hGLPR1 (converted)
[7] = read-out: hSCTR pEC50 (converted)
[8] = read-out: hGLP1R pEC50 (converted)

Turbidity (pH 7) [1] | EC50 [2, 5] [nM] | Fibril formation [3] | Selectivity [4] | EC50 [4, 6] [nM] | EC50 [2, 7] [nM] | EC50 [4, 8] [nM] | SCTR EC50/GLP1R EC50 ratio [4] | SMILES
0.08 | 398 | 241858 | 3341 | 0.126 |  |  |  | CC(C)C[C@H](NC(=O)[C@H](Cc1ccccc1)NC(=O)[C@H](CCCNC(=N)N)NC(=O)[C@H](CCC(N)=O)NC(=O)[C@H](CO)NC(=O)[C@H](C)NC(=O)[C@H](C)NC(=O)[C@H](Cc1ccccc1)NC(=O)[C@H](CCC(=O)O)NC(=O)[C@H](CCCCNC(=O)COCCOCCNC(=O)COCCOCCNC(=O)CC[C@H](NC(=O)CCCCCCCCCCCCCCCCCCC(=O)O)C(=O)O)NC(=O)[C@H](CC(C)C)NC(=O)[C@H](CCCNC(=N)N)NC(=O)[C@H](CO)NC(=O)[C@@H](NC(=O)[C@H](CC(=O)O)NC(=O)[C@H](CO)NC(=O)[C@@H](NC(=O)[C@H](Cc1ccccc1)NC(=O)[C@@H](NC(=O)CNC(=O)[C@H](CCC(=O)O)NC(=O)C(C)(C)NC(=O)[C@@H](N)Cc1c[nH]cn1)[C@@H](C)O)[C@@H](C)O)C(C)C)C(=O)N[C@@H](CCC(=O)O)C(=O)N[C@@H](Cc1c[nH]cn1)C(=O)N[C@@H](CC(C)C)C(=O)N[C@H](C(N)=O)C(C)C [compound 52] (H-H[Aib]EGTFTSDVSRLK([AEEA-AEEA-γGlu-C20 diacid])EFAASQRFLEHLV-NH2)
0.08 | 398 | 11365 | 18582 | 0.0251 |  |  |  | CC(C)C[C@H](NC(=O)[C@H](Cc1ccccc1)NC(=O)[C@H](CCCNC(=N)N)NC(=O)[C@H](CCC(N)=O)NC(=O)[C@H](CCC(=O)O)NC(=O)[C@H](C)NC(=O)[C@H](C)NC(=O)[C@@H](NC(=O)[C@H](CCC(=O)O)NC(=O)[C@H](CCCCNC(=O)COCCOCCNC(=O)COCCOCCNC(=O)CC[C@H](NC(=O)CCCCCCCCCCCCCCCCCCC(=O)O)C(=O)O)NC(=O)[C@H](CC(C)C)NC(=O)[C@H](CCCNC(=N)N)NC(=O)[C@H](CO)NC(=O)[C@@H](NC(=O)[C@H](CC(=O)O)NC(=O)[C@H](CO)NC(=O)[C@@H](NC(=O)[C@H](Cc1ccccc1)NC(=O)[C@@H](NC(=O)CNC(=O)[C@H](CCC(=O)O)NC(=O)C(C)(C)NC(=O)[C@@H](N)Cc1c[nH]cn1)[C@@H](C)O)[C@@H](C)O)C(C)C)[C@@H](C)O)C(=O)N[C@@H](CCC(=O)O)C(=O)N[C@@H](Cc1c[nH]cn1)C(=O)N[C@@H](CC(C)C)C(=O)N[C@H](C(N)=O)C(C)C [compound 34] (H-H[Aib]EGTFTSDVSRLK([AEEA-AEEA-γGlu-C20 diacid])ETAAEQRFLEHLV-NH2)
0.09 |  | 4491 |  |  | 126 | 0.00501 | 22241 | CC(C)C[C@H](NC(=O)[C@H](Cc1c[nH]c2ccccc12)NC(=O)[C@H](CCCNC(=N)N)NC(=O)[C@H](CCC(N)=O)NC(=O)[C@H](CC(C)C)NC(=O)C(C)(C)NC(=O)[C@H](C)NC(=O)[C@H](CCC(=O)O)NC(=O)[C@H](CCC(=O)O)NC(=O)[C@H](CCCCNC(=O)COCCOCCNC(=O)COCCOCCNC(=O)CC[C@H](NC(=O)CCCCCCCCCCCCCCCCCCC(=O)O)C(=O)O)NC(=O)[C@H](CC(C)C)NC(=O)[C@H](Cc1ccc(O)cc1)NC(=O)[C@H](CO)NC(=O)[C@@H](NC(=O)[C@H](CC(=O)O)NC(=O)[C@H](CO)NC(=O)[C@@H](NC(=O)[C@H](Cc1ccccc1)NC(=O)[C@@H](NC(=O)CNC(=O)[C@H](CCC(=O)O)NC(=O)C(C)(C)NC(=O)[C@@H](N)Cc1c[nH]cn1)[C@@H](C)O)[C@@H](C)O)C(C)C)C(=O)N[C@@H](CCC(=O)O)C(=O)N[C@@H](Cc1c[nH]cn1)C(=O)N[C@@H](CC(C)C)C(=O)N[C@H](C(N)=O)C(C)C [compound 135] (H-H[Aib]EGTFTSDVSYLK([AEEA-AEEA-γGlu-C20 diacid])EEA[Aib]LQRWLEHLV-NH2)

The remaining lines, values behind:

SMILES | Turbidity (pH 7) [1] | EC50 [2, 5] [nM] | Fibril formation [3] | Selectivity [4] | EC50 [4, 6] [nM] | EC50 [2, 7] [nM] | EC50 [4, 8] [nM] | SCTR EC50/GLP1R EC50 ratio [4]
CC(C)C[C@H](NC(=O)[C@H](Cc1ccccc1)NC(=O)[C@H](CCCNC(=N)N)NC(=O)[C@H](CCC(N)=O)NC(=O)[C@H](CO)NC(=O)[C@H](C)NC(=O)[C@H](C)NC(=O)[C@H](Cc1ccccc1)NC(=O)[C@H](CCC(=O)O)NC(=O)[C@H](CCCCNC(=O)COCCOCCNC(=O)COCCOCCNC(=O)CC[C@H](NC(=O)CCCCCCCCCCCCCCCCCCC(=O)O)C(=O)O)NC(=O)[C@H](CC(C)C)NC(=O)[C@H](Cc1ccc(O)cc1)NC(=O)[C@H](CO)NC(=O)[C@@H](NC(=O)[C@H](CC(=O)O)NC(=O)[C@H](CO)NC(=O)[C@@H](NC(=O)[C@H](Cc1ccccc1)NC(=O)[C@@H](NC(=O)CNC(=O)[C@H](CCC(=O)O)NC(=O)C(C)(C)NC(=O)[C@@H](N)Cc1c[nH]cn1)[C@@H](C)O)[C@@H](C)O)C(C)C)C(=O)N[C@@H](CCC(=O)O)C(=O)N[C@@H](Cc1c[nH]cn1)C(=O)N[C@@H](CC(C)C)C(=O)N[C@H](C(N)=O)C(C)C [compound 66] (H-H[Aib]EGTFTSDVSYLK([AEEA-AEEA-γGlu-C20 diacid])EFAASQRFLEHLV-NH2) | 0.08 | 3160 | 201306 | 81752 | 0.0398 |  |  | 
CC(C)C[C@H](NC(=O)[C@H](Cc1ccccc1)NC(=O)[C@H](CCCNC(=N)N)NC(=O)[C@H](CCC(N)=O)NC(=O)[C@H](CO)NC(=O)[C@H](C)NC(=O)[C@H](C)NC(=O)[C@H](CCC(=O)O)NC(=O)[C@H](CCC(=O)O)NC(=O)[C@H](CCCCNC(=O)COCCOCCNC(=O)COCCOCCNC(=O)CC[C@H](NC(=O)CCCCCCCCCCCCCCCCCCC(=O)O)C(=O)O)NC(=O)[C@H](CC(C)C)NC(=O)[C@H](CCC(=O)O)NC(=O)[C@H](CO)NC(=O)[C@@H](NC(=O)[C@H](CC(=O)O)NC(=O)[C@H](CO)NC(=O)[C@@H](NC(=O)[C@H](Cc1ccccc1)NC(=O)[C@@H](NC(=O)CNC(=O)[C@H](CCC(=O)O)NC(=O)C(C)(C)NC(=O)[C@@H](N)Cc1c[nH]cn1)[C@@H](C)O)[C@@H](C)O)C(C)C)C(=O)N[C@@H](CCC(=O)O)C(=O)N[C@@H](Cc1c[nH]cn1)C(=O)N[C@@H](CC(C)C)C(=O)N[C@H](C(N)=O)C(C)C [compound 87] (H-H[Aib]EGTFTSDVSELK([AEEA-AEEA-γGlu-C20 diacid])EEAASQRFLEHLV-NH2) | 0.08 |  | 7811 |  |  | 1580 | 0.0398 | 39811
CC[C@H](C)[C@H](NC(=O)[C@H](CC(=O)O)NC(=O)[C@H](CO)NC(=O)[C@@H](NC(=O)[C@H](Cc1ccccc1)NC(=O)[C@@H](NC(=O)CNC(=O)[C@H](CCC(=O)O)NC(=O)C(C)(C)NC(=O)[C@@H](N)Cc1c[nH]cn1)[C@@H](C)O)[C@@H](C)O)C(=O)N[C@@H](CO)C(=O)NCC(=O)N[C@@H](CC(C)C)C(=O)N[C@@H](CC(C)C)C(=O)N[C@@H](CCC(=O)O)C(=O)NCC(=O)N[C@@H](C)C(=O)N[C@@H](C)C(=O)N[C@@H](CC(C)C)C(=O)N[C@@H](CCC(N)=O)C(=O)N[C@@H](CCCNC(=N)N)C(=O)N[C@@H](Cc1ccccc1)C(=O)N[C@H](C(=O)N[C@@H](CCC(N)=O)C(=O)N[C@@H](Cc1c[nH]c2ccccc12)C(=O)N[C@@H](CC(C)C)C(=O)N[C@H](C(N)=O)C(C)C)[C@@H](C)CC [compound 120] (H-H[Aib]EGTFTSDISGLLEGAALQRFIQWLV-NH2) | 0.23 |  | 4449 |  |  | 200 | 0.0501 | 3717
CC(C)C[C@H](NC(=O)[C@H](Cc1ccccc1)NC(=O)[C@H](CCCNC(=N)N)NC(=O)[C@H](CCC(N)=O)NC(=O)[C@H](CC(C)C)NC(=O)C(C)(C)NC(=O)[C@H](C)NC(=O)[C@H](CCC(=O)O)NC(=O)[C@H](CCC(=O)O)NC(=O)[C@H](CCCCNC(=O)COCCOCCNC(=O)COCCOCCNC(=O)CC[C@H](NC(=O)CCCCCCCCCCCCCCCCCCC(=O)O)C(=O)O)NC(=O)[C@H](CC(C)C)NC(=O)[C@H](Cc1ccccc1)NC(=O)[C@H](CO)NC(=O)[C@@H](NC(=O)[C@H](CC(=O)O)NC(=O)[C@H](CO)NC(=O)[C@@H](NC(=O)[C@H](Cc1ccccc1)NC(=O)[C@@H](NC(=O)CNC(=O)[C@H](CCC(=O)O)NC(=O)C(C)(C)NC(=O)[C@@H](N)Cc1c[nH]cn1)[C@@H](C)O)[C@@H](C)O)C(C)C)C(=O)N[C@@H](CCC(=O)O)C(=O)N[C@@H](Cc1c[nH]cn1)C(=O)N[C@@H](CC(C)C)C(=O)N[C@H](C(N)=O)C(C)C [compound 173] (H-H[Aib]EGTFTSDVSFLK([AEEA-AEEA-γGlu-C20 diacid])EEA[Aib]LQRFLEHLV-NH2) | 0.08 |  | 2836 |  |  | 158 | 0.0126 | 13696
